{"source": "patent US20040220221A1", "about": "“Treatment of degenerative diseases” (priority 2002, published 2004)", "test_system": "experimentally induced osteoarthritis", "test": "experimentally induced osteoarthritis in guinea pigs (partial medial meniscectomy), joint histology", "type": "in vivo, Dunkin Hartley guinea pigs", "settings": "1, 3 and 10 mg/kg/day orally by gavage, 10 weeks, operated right hind leg joint, blinded pathologist", "protocol": "The following description gives evidence on which the invention is based.\nDunkin Hartley guinea pigs(apart from the blank control) were anaesthetised and underwent partial medial meniscectomy in the right hind leg. 3 doses of +mefloquine, (1 mg/kg/day, 3 mg/kg/day and 10 mg/kg/day) were administered orally by gavage to groups of 10 animals as well as a vehicle control. The vehicle was 0.2% methylcellulose and 0.4% Tween 80 in bidistilled water for the mefloquine groups. The administration volume was 2 mL/kg.\nThe animals were followed for 10 weeks. Terminal blood samples were taken for drug levels. Histology was performed on the joint, which was operated on, and an assessment of the cartilage structure, cell proliferation and loss of proteoglycans was made. The histology was performed by a blinded pathologist."}
{"molecule": "O[C@H](c1cc(C(F)(F)F)nc2c(C(F)(F)F)cccc12)[C@@H]1CCCCN1", "note": "[+mefloquine, (+)-erythro-mefloquine]", "values": [{"measurement": "degeneration of cartilage (histology: cartilage structure, cell proliferation, loss of proteoglycans)", "value": "prevents the degeneration of cartilage"}]}
